Results published in patent US20230165865A1, “HETEROARYLDIHYDROPYRIMIDINE DERIVATIVES AND METHODS OF TREATING HEPATITIS B INFECTIONS” (Janssen Pharmaceutica NV, priority 2018, published 2023).
Like-named read-outs stand apart in the source and are kept apart here.

Tests used:
[1] = Pharmacokinetic and tissue distribution study via intravenous and oral administration in male C57BL/6 mice; format: in vivo; details: for Kp / clearance / Cmax: male, C57BL/6, mouse; for Kp: liver and plasma, po; for Kp / Cmax / Liver AUCinf/Dose / Liver Cmax/Dose / PO AUCinf/Dose: PO; for clearance / IV AUCinf/Dose: IV, nominal 2 mg/kg; for clearance: read-out: IV Cl; for Cmax: dose per compound in table (5.28-9.95 mg/kg); for F: PO vs IV
Experimental: Male C57BL/6 mice with a weight range of 20-25 g (Hua Fu Kang, China) were used. Animals were fasted overnight and free access to food 4 hours after dosing.
Test compound (correction factor: 1.00) was dissolved in a 20% hydroxypropyl-β-cyclodextrin (HP-β-CD) at a final concentration of 1 mg/ml for the intravenous (IV) formulation and at final concentrations of 0.5 mg/ml for the oral (PO) formulation. The intravenous formulation was dosed at 2 ml/kg to obtain a dose of 2 mg/kg. The oral formulations were dosed at 10 ml/kg to obtain final doses of 5 mg/kg.
Blood samples were taken at 7 and 20 min, 1, 2, 4, 8 and 24 h after intravenous dose administration. Blood and liver samples were taken at 30 min, 1, 2, 4, 8, 12 and 24 h after oral dose administration.
(§1) Approximately 0.020 mL blood will be collected into BD blood collection tubes containing K3-EDTA at each time point. Samples were placed immediately on melting ice and plasma was obtained following centrifugation at 4° C. for 5 minutes at approximately 4000×g. Plasma samples were adjusted to pH 3-4 by phosphoric acid and stored at −75±15° C. prior to analysis. The whole process was completed within 1 hour.
Liver samples were collected at adopted time point, and the vial containing the tissues sample was snap-frozen in liquid nitrogen right away and kept at −75±15° C. prior to analysis. All liver samples were weighed and homogenized with phosphoric acid solution (pH to 3-4) by liver weight (g) to phosphoric acid solution volume (mL) ratio 1:4 before analysis.
Plasma and liver samples were analyzed using LC-MS/MS methods. The lower limit of quantification (LLOQ) for plasma was 1.0 ng/ml and for liver was 2.5 ng/g. A non-compartmental analysis using the “Linear up log down” rule was used for all data. A limited pharmacokinetic analysis was performed using Phoenix™ Professional (Version 6.1).

[2] = Metabolic stability of test compound in human hepatocyte cell; format: in vitro ADME; details: cryopreserved human hepatocytes (suspension), human hepatocytes; for half-life at 1 uM: 0-120 min, read-out: T½; for CLint scaled at 1 uM: scale-up intrinsic clearance, scaling factor 2544.3, read-out: Clint (liver)
Experimental: • 1. The cryopreserved human hepatocytes cells were thawed in 37° C. water bath and diluted with pre-warmed incubation medium to a working cell density of 1×10^6 viable cells/mL. • 2. The 198 μL pre-warmed hepatocyte suspensions were spiked with 2 μL of 100 μM compound or reference compound(Verapamil) at a final concentration of 1.0 μM in a 96-well plate. The plate was incubated at 37° C., 900 rpm. All incubations will be performed in singlet. • 3. 25 μL aliquots of well contents were collected at time points of 0, 15, 30, 60, 90 and 120 minutes. The reactions were stopped by the addition of 6-fold volumes of cold acetonitrile with internal standards. • 4. After centrifugation for 25 minutes at 3,220 g. Aliquot of 100 μL of the supernatant was mixed with 100 μL of ultra-pure H2O and then used for LC-MS/MS analysis.
All calculations were carried out using Microsoft Excel. Peak areas were determined from extracted ion chromatograms. Determine the in vitro half-life (t1/2) of parent compound by regression analysis of the percent parent disappearance vs. time curve.
The in vitro half-life (in vitro t1/2) is determined from the slope value k:
Conversion of the in vitro t1/2(in min) into the in vitro intrinsic clearance (in vitro CLint, in μL/min/10^6 cells) is done using the following equation:
V=incubation volume (0.2 mL);
N=number of hepatocytes per well (0.2×10^6 cells).
Conversion of the in vitro t1/2(in min) into the scale-up intrinsic clearance (CLint(liver), in mL/min/kg) was done using the following equation:
CLint(liver)=kV/N×scaling factor

[3] = Pharmacokinetic study after intravenous and oral administration in male SD rats; format: in vivo; details: for clearance / Cmax: male, SD; for clearance / IV AUCinf/Dose: IV, nominal 2 mg/kg; for clearance: read-out: IV Cl; for Cmax / PO AUCinf/Dose: PO; for Cmax: nominal 5 mg/kg; for F: PO vs IV
Experimental: Male SD rats with a weight range of 250-300 g (Si Bei Fu Laboratory Animal Technology Co. Ltd, China) were used. Animals were fasted overnight and free access to food 4 hours after dosing.
Test compound (correction factor: 1.00) was dissolved in a 20% hydroxypropyl-β-cyclodextrin (HP-β-CD) at a final concentration of 1 mg/ml for the intravenous (IV) formulation and at final concentrations of 0.5 mg/ml for the oral (PO) formulation.
The intravenous formulation was dosed at 2 ml/kg to obtain a dose of 2 mg/kg. The oral formulations were dosed at 10 ml/kg to obtain final doses of 5 mg/kg.
Blood samples were taken at 5, 15 and 30 min, 1, 2, 4, 8 and 24 h after intravenous dose administration. Blood samples were taken at 15 and 30 min, 1, 2, 4, 8, 12 and 24 h after oral dose administration.
as §1, with “0.20” for “0.020”, “containing Sodium Fluoride (NaF), Potassium Oxalate (KoX) and” for “containing”
Plasma samples were analyzed using LC-MS/MS methods. The lower limit of quantification (LLOQ) for plasma was 1.0 ng/ml.
A non-compartmental analysis using the “Linear up log down” rule was used for all data. A limited pharmacokinetic analysis was performed using Phoenix™ Professional (Version 6.1). Results: See table 10 below for plasma PK results.

[4] = mice, read-out: AUCInf Ratio (Liver/Plasma)
[5] = mice, read-out: Cmax Ratio (Liver/Plasma)
[6] = rat plasma, comparing with reference 2

| Structure (SMILES) | Kp [1, 4] | Kp [1, 5] | clearance ([1]; mice plasma) [mL/min/kg] | Cmax ([1]; mice plasma) [ng/mL] | Liver AUCinf/Dose ([1]; mice liver) [ng·kg·h/g/mg] | Liver Cmax/Dose ([1]; mice liver) [kg·ng/mg/mL] | IV AUCinf/Dose ([1]; mice plasma) [ng·kg·h/mg/mL] | PO AUCinf/Dose ([1]; mice plasma) [ng·kg·h/mg/mL] | F ([1]; mice) [%] | half-life at 1 uM [2] [h] | CLint scaled at 1 uM [2] [mL/min/kg] | clearance ([3]; rat plasma) [mL/min/kg] | Cmax ([3]; rat plasma) [ng/mL] | IV AUCinf/Dose ([3]; rat plasma) [ng·kg·h/mg/mL] | PO AUCinf/Dose ([3]; rat plasma) [ng·kg·h/mg/mL] | F ([3]; rat) [%] | other results |
| --- | --- | --- | --- | --- | --- | --- | --- | --- | --- | --- | --- | --- | --- | --- | --- | --- | --- |
| CCOC(=O)C1=C(CN2CCN3C(=O)N(CC(C)(C)C(=O)O)C[C@@H]3C2)NC(c2nccs2)=N[C@H]1c1cccc(F)c1C [Reference 2, reference compound] | 15.9 | 12.2 | 49.1 | 733 | 2894 | 1676 | 345.2 | 181.5 | 52.7 | 2.45 | 12 | 65.6 | 332 | 254.9 | 129.7 | 50.8 |  |
| CCOC(=O)C1=C(CN2CCN3C(=S)N(CC(C)(C)C(=O)O)CC3C2)NC(c2nccs2)=N[C@H]1c1cccc(F)c1C (single isomer, unassigned) [Compound 1A] | 17.5 | 14 | 16.6 | 2350 | 13733 | 6225 | 1078.3 | 784.8 | 72.9 | 3.82 | 7.7 | 11.6 | 4060 | 1578.1 | 1780.7 | 113 | dose-normalized Cmax and dose-normalized AUCinf in liver, in words ([1]; mice liver, comparing with reference 1 and reference 2): far increased; clearance, in words ([1]; mice plasma, comparing with reference 1 and reference 2): far slower clearance; bioavailability in plasma, in words ([1]; mice, comparing with reference 1 and reference 2): increased bioavailability; clearance, in words [3, 6]: far slower clearance; dose-normalized AUC (AUCinf/Dose), in words [3, 6]: over two-folds higher; bioavailability (F (%)), in words ([3]; rat, comparing with reference 2): increased (or equal) bioavailability |
